Results on 19 compounds are retold here after patent publication US7368457B2, “Bridged N-arylsulfonylpiperidines as gamma-secretase inhibitors” (Schering Corporation, priority 2003, dated 2008).

Each structure is given as a SMILES string.

One assay concerns the target T1, gamma secretase (Homo sapiens, UniProt P49768).
T1 construct: endogenous in cells; host or cells: Membranes of 293 T-REx cells, clone pTRE.15; The enzyme is endogenous; only the substrate SPC99-Lon is transfected
Description: Gamma secretase activity in membranes of 293 cells expressing C99 (SPC99-Lon), Aβ 40 / Aβ 42 ECL immunoassay. It counts as biochemical.
Details: not given
The text has this: Reagents. Antibodies WO2, G2-10, and G2-11 were obtained from Dr. Konrad Beyreuther (University of Heidelberg, Heidelberg, Germany). WO2 recognizes residues 5-8 of Aβ peptide, while G2-10 and G2-11 recognize the specific C-terminal structure of Aβ 40 and Aβ 42, respectively. Biotin-4G8 was purchased from Senetec (St. Louis, Mo.). All tissue culture reagents used in this work were from Life Technologies, Inc., unless otherwise specified. Pepstatin A was purchased from Roche Molecular Biochemicals; DFK167 was from Enzyme Systems Products (Livermore, Calif.).
cDNA Constructs, Tissue Culture, and Cell Line Construction. […] Upon insertion into the membrane, the 17 amino acid signal peptide is processed, leaving an additional leucine at the N-terminus of Aβ SPC99-Ion was cloned into the pcDNA4/TO vector (Invitrogen) and transfected into 293 cells stably transfected with pcDNA6/TR, which is provided in the T-REx system (Invitrogen). The transfected cells were selected in Dulbecco's modified Eagle's media (DMEM) supplemented with 10% fetal bovine serum, 100 units/mL penicillin, 100 µg/mL streptomycin, 250 µg/mL zeocin, and 5 µg/mL blasticidin (Invitrogen). Colonies were screened for Aβ production by inducing C99 expression with […] tetracycline for 16-20 h and analyzing conditioned media with a sandwich immunoassay (see below). One of the clones, designated as pTRE.15, was used in these studies.
Membrane Preparation. C99 expression in cells was induced with […] tetracycline for 20 h. The cells were pretreated with […] 12-myristate 13-acetate (PMA) and […] brefeldin A (BFA) for 5-6 h at 37 C before harvesting. The cells were washed 3 times with cold phosphate-buffered saline (PBS) and harvested in buffer A containing 20 mM Hepes (pH 7.5), 250 mM sucrose, 50 mM KCl, 2 mM EDTA, 2 mM EGTA, and Complete protease inhibitor tablets (Roche Molecular Biochemicals). The cell pellets were flash-frozen in liquid nitrogen and stored at −70 C before use.
To make membranes, the cells were resuspended in buffer A and lysed in a nitrogen bomb at 600 psi. The cell lysate was centrifuged at 1500 g for 10 min to remove nuclei and large cell debris. The supernatant was centrifuged at 100000 g for 1 h. The membrane pellet was resuspended in buffer A plus 0.5 M NaCl, and the membranes were collected by centrifugation at 200000 g for 1 h. The salt-washed membrane pellet was washed again in buffer A and centrifuged at 100000 g for 1 h. The final membrane pellet was resuspended in a small volume of buffer A using a Teflon-glass homogenizer. The protein concentration was determined, and membrane aliquots were flash-frozen in liquid nitrogen and stored at −70° C.
γ-Secretase Reaction and Aβ Analysis. To measure γ-secretase activity, membranes were incubated at 37° C. for 1 h in 50 μL of buffer containing 20 mM Hepes (pH 7.0) and 2 mM EDTA. At the end of the incubation, Aβ 40 and Aβ 42 were measured using an electrochemiluminescence (ECL)-based immunoassay. Aβ 40 was identified with antibody pairs TAG-G2-10 and biotin-WO2, while Aβ 42 was identified with TAG-G2-11 and biotin-4G8. The ECL signal was measured using an ECL-M8 instrument (IGEN International, Inc.) according to the manufacturer's instructions. The data presented were the means of the duplicate or triplicate measurements in each experiment.
For the compound `O=C(O[C@H]1CCC2CCCC1N2S(=O)(=O)c1ccc(Cl)cc1)N1CCC(N2CCCCC2)CC1` (stereo partly shown) [Example 16], the IC50 (usually the concentration at which inhibition is half-maximal) was approximately 0.016 µM.

Turning to `O=C(O[C@@H]1CCC2CCCC1N2S(=O)(=O)c1ccc(Cl)cc1)N1CCC(N2CCCCC2)CC1` (stereo partly shown) [Example 15], the IC50 lay within 1 to 10 µM.

The assay is the same for the next values; noted with them: gamma secretase membrane assay; ranges given as 'about 0.1 to about 1.0 μM' and 'about 1 to about 10 μM'; read-out: IC50.
As to `O=C(O[C@H]1CCC2CCCC1N2S(=O)(=O)c1ccc(Cl)cc1)N1CCC(O)(c2ccc(Cl)cc2)CC1` (stereo partly shown) [Example 24], the IC50 lay in the range of 0.1 to 1 µM.

With `O=C(O[C@H]1CCC2CCC1N2S(=O)(=O)c1ccc(Cl)cc1)N1CCC(N2CCCCC2)CC1` (stereo partly shown) [Example 43], the IC50 is 0.1 to 1 µM.

For `CC(C)N1CCN(C(=O)OC2C[C@H]3CCC2N3S(=O)(=O)c2ccc(Cl)cc2)CC1` (stereo partly shown) [Example 40], the IC50 lay in the range of 1 to 10 µM.

With `CCN(Cc1ccncc1)C(=O)O[C@H]1CCC2CCCC1N2S(=O)(=O)c1ccc(Cl)cc1` (stereo partly shown) [Example 29], the IC50 lay within 0.1 to 1 µM.

In the case of `O=C(O[C@H]1CCC2CCCC1N2S(=O)(=O)c1ccc(Cl)cc1)N1CCN(CCO)CC1` (stereo partly shown) [Example 14], the IC50 was 0.1 to 1 µM.

Turning to `COC(=O)C1CCN(C(=O)O[C@H]2CCC3CCCC2N3S(=O)(=O)c2ccc(Cl)cc2)CC1` (stereo partly shown) [Example 27], the IC50 lay within 0.1 to 1 µM.

Consider `O=C(O[C@@H]1C=CC2CCCC1N2S(=O)(=O)c1ccc(Cl)cc1)N1CCC(N2CCCCC2)CC1` (stereo partly shown) [Example 34], for which the 50% inhibitory concentration (IC50) was 0.1 to 1 µM.

With `CCN1CCN(C(=O)OC2C[C@H]3CCC2N3S(=O)(=O)c2ccc(Cl)cc2)CC1` (stereo partly shown) [Example 37], the IC50 was 1 to 10 µM.

On to `O=C(OC1CC2CCC1N2S(=O)(=O)c1ccc(Cl)cc1)N1CCC(N2CCCCC2)CC1` (stereo not shown) [Example 35], for which the IC50 lay within 1 to 10 µM.

In the case of `CC(C)N1CCN(C(=O)O[C@H]2CCC3CCCC2N3S(=O)(=O)c2ccc(Cl)cc2)CC1` (stereo partly shown) [Example 21], the IC50 is 0.1 to 1 µM.

Regarding `CCN(CC)C(=O)C1CCCN(C(=O)O[C@H]2CCC3CCCC2N3S(=O)(=O)c2ccc(Cl)cc2)C1` (stereo partly shown) [Example 25], the IC50 was 0.1 to 1 µM.

Consider `O=C(OC1C[C@H]2CCC1N2S(=O)(=O)c1ccc(Cl)cc1)N1CCN(C2CCCCC2)CC1` (stereo partly shown) [Example 36], for which the IC50 is 1 to 10 µM.

On to `O=C(O[C@H]1CCC2CCCC1N2S(=O)(=O)c1ccc(Cl)cc1)N1CCN(c2ccccc2)CC1` (stereo partly shown) [Example 23], for which the IC50 lay in the range of 0.1 to 1 µM.

Regarding `O=C(O[C@H]1CCC2CCCC1N2S(=O)(=O)c1ccc(Cl)cc1)N1CCN(CC2CC2)CC1` (stereo partly shown) [Example 17], the IC50 was 0.1 to 1 µM.

`O=C(O[C@H]1CCC2CCCC1N2S(=O)(=O)c1ccc(Cl)cc1)N1CCC[C@H]1CO` (stereo partly shown) [Example 28]: the IC50 fell in the range of 0.1 to 1 µM.

In the case of `O=C(O[C@H]1CCC2CCCC1N2S(=O)(=O)c1ccc(Cl)cc1)N1CCN(CCCO)CC1` (stereo partly shown) [Example 22], the IC50 is 0.1 to 1 µM.

On to `CN1CCN(C(=O)O[C@H]2CCC3CCCC2N3S(=O)(=O)c2ccc(Cl)cc2)CC1` (stereo partly shown) [Example 26], for which the IC50 lay within 0.1 to 1 µM.
